Drawing on patent publication US4413005A, “Carbamate derivatives and insecticidal, miticidal or nematocidal compositions containing the same” (priority 1981, dated 1983), this text covers mortality and LD50 for 19 compounds.

The subject of series [1] is tobacco cutworm (Spodoptera litura). Description: Mortality of third-instar larvae of tobacco cutworm on cabbage (Test Example 1). The following applies: 72 h. The series is classed as in vivo. As for the experimental part: Ten third-instar larvae of tobacco cutworm (Spodoptera litura) were placed on a cabbage (one-month-old seedling) planted in a pot, and a 50% emulsion of the compound to be tested was diluted to a specified concentration and applied to the leaves of the plant to fully wet them. The test compound of each specified concentration was tested on two pots.

Series [2] has as its system green rice leafhopper (Nephotettix cincticeps). Description: Mortality of female adults of green rice leafhopper on paddy rice (Test Example 2). The series is classed as in vivo. The following applies: 72 h. The procedure: An emulsion of specified concentration was prepared from a 50% wettable powder of the compound to be tested and applied to the leaves of paddy rice (one-month-old seedlings) planted in a pot to fully wet the leaves. After the emulsion had been dried, the pot was covered with a net cage, into which 10 female adults of green rice leafhopper (Nephotettix cincticeps) were released. The compound of each specified concentration was tested on two pots.

In series [3] the test system is house fly (Musca domestica). The series can be described thus: Local application to house fly, LD50 by Probit method (Test Example 4). The series is classed as in vivo. The following applies: topical, 24 h. The procedure: The compound to be tested was dissolved in a predetermined amount of acetone. The solution was diluted to various concentrations and locally applied to house fly (Musca domestica).

The nature of series [4]: Acute oral toxicity in male mice, LD50 by Litchfield-Wilcoxon method (Test Example 5). The following applies: mouse, in vivo, mortality on the seventh day. The procedure: Compounds of this invention were tested on male mice for acute toxicity by oral administration.

Take `CCOC(=O)CCN(SN(C)C(=O)Oc1cccc2c1OC(C)(C)C2)C1CCCCC1` [Example 32, 2,3-Dihydro-2,2-dimethylbenzofuran-7-yl N-(N-cyclohexyl-N-ethoxycarbonylethylaminosulfenyl)-N-methylcarbamate]: in series [1], the mortality at 500 ppm was 65%, the mortality at 1000 ppm stood at 80% and the mortality at 2000 ppm was 100%. In series [2], this compound registered a mortality at 200 ppm of 55%, a mortality at 400 ppm of 75% and a mortality at 800 ppm of 100%. The LD50 in series [3] was determined as 32.7 mg/kg. This compound also displayed an LD50 at 168 h in series [4] of 107 mg/kg.

In series [1], `CCCCCCCCN(CCC#N)SN(C)C(=O)Oc1cccc2c1OC(C)(C)C2` [Example 41] had a mortality at 500 ppm of 65%, a mortality at 1000 ppm of 80% and a mortality at 2000 ppm of 100%. In series [2], this compound registered a mortality at 200 ppm of 60%, a mortality at 400 ppm of 75% and a mortality at 800 ppm of 95%. Further, the LD50 in series [3] came out at 54.6 mg/kg. This compound registered an LD50 at 168 h in series [4] of 105 mg/kg.

In series [1], `CCCCN(CC(=O)OCC)SN(C)C(=O)Oc1cccc2c1OC(C)(C)C2` [Example 12, 2,3-dihydro-2,2-dimethylbenzofuran-7-yl N-(N-butyl-N-ethoxycarbonylmethylaminosulfenyl)-N-methyl-carbamate] gave a mortality at 500 ppm of 75%, a mortality at 1000 ppm of 90% and a mortality at 2000 ppm of 100%. For the same compound, in series [2], the mortality at 200 ppm was determined as 65%, the mortality at 400 ppm is 90% and the mortality at 800 ppm stood at 100%. Besides, in series [3], the LD50 is 16.7 mg/kg. Also, in series [4], the LD50 at 168 h amounted to 125 mg/kg.

For `CCOC(=O)CN(SN(C)C(=O)Oc1cccc2c1OC(C)(C)C2)C(C)CC` (centres unmarked) [Example 16], in series [1], the mortality at 500 ppm came to 65%, the mortality at 1000 ppm was 85% and the mortality at 2000 ppm turned out to be 100%. In addition, in series [2], the mortality at 200 ppm worked out at 60%, the mortality at 400 ppm is 80% and the mortality at 800 ppm was 100%. Further, the LD50 in series [3] stood at 44.4 mg/kg. In series [4], this compound came in with an LD50 at 168 h of 110 mg/kg.

In series [1], `CCCCN(CCC(=O)OCC)SN(C)C(=O)Oc1cccc2c1OC(C)(C)C2` [Example 27, 2,3-Dihydro-2,2-dimethylbenzofuran-7-yl N-(N-n-butyl-N-ethoxycarbonylethylaminosulfenyl)-N-methylcarbamate] displayed a mortality at 500 ppm of 75%, a mortality at 1000 ppm of 90% and a mortality at 2000 ppm of 100%. Moreover, in series [2], the mortality at 200 ppm came to 65%, the mortality at 400 ppm stood at 90% and the mortality at 800 ppm stood at 100%. Besides, the LD50 in series [3] came out at 13.8 mg/kg. The LD50 at 168 h in series [4] was determined as 105 mg/kg.

In series [1], `CCOC(=O)CCCN(CC(=O)OCC)SN(C)C(=O)Oc1cccc2c1OC(C)(C)C2` [Example 10] came in with a mortality at 500 ppm of 75%, a mortality at 1000 ppm of 85% and a mortality at 2000 ppm of 100%. In series [2], this compound had a mortality at 200 ppm of 60%, a mortality at 400 ppm of 90% and a mortality at 800 ppm of 100%. For the same compound, the LD50 in series [3] came to 46 mg/kg. Also, the LD50 at 168 h in series [4] turned out to be 115 mg/kg.

`CN(SN(CCC#N)CCC#N)C(=O)Oc1cccc2c1OC(C)(C)C2` [Example 7, 2,3-dihydro-2,2-dimethylbenzofuran-7-yl N-[N,N-bis(cyanoethyl)aminosulfenyl]-N-methyl-carbamate]: in series [1], the mortality at 500 ppm amounted to 60%, the mortality at 1000 ppm was 75% and the mortality at 2000 ppm worked out at 100%. In series [2], this compound showed a mortality at 200 ppm of 50%, a mortality at 400 ppm of 70% and a mortality at 800 ppm of 90%. Moreover, the LD50 in series [3] worked out at 54 mg/kg. The LD50 at 168 h in series [4] was 75 mg/kg.

For the compound `CCOC(=O)CCN(CCC(=O)OCC)SN(C)C(=O)Oc1cccc2c1OC(C)(C)C2` [Example 6, 2,3-dihydro-2,2-dimethylbenzofuran-7-yl N-[N,N-bis(ethoxycarbonylethyl)aminosulfenyl]-N-methylcarbamate], in series [1], the mortality at 500 ppm was 60%, the mortality at 1000 ppm is 75% and the mortality at 2000 ppm stood at 100%. In series [2], the mortality at 200 ppm amounted to 55%, the mortality at 400 ppm worked out at 75% and the mortality at 800 ppm worked out at 95%. In addition, the LD50 in series [3] was found to be 38.3 mg/kg. For the same compound, the LD50 at 168 h in series [4] worked out at 135 mg/kg.

For the compound `CCOC(=O)CN(SN(C)C(=O)Oc1cccc2c1OC(C)(C)C2)c1ccccc1` [Example 13, 2,3-dihydro-2,2-dimethylbenzofuran-7-yl N-(N-phenyl-N-ethoxycarbonylmethylaminosulfenyl)-N-methylcarbamate], in series [1], the mortality at 500 ppm was found to be 75%, the mortality at 1000 ppm was found to be 90% and the mortality at 2000 ppm is 100%. Moreover, in series [2], the mortality at 200 ppm was 65%, the mortality at 400 ppm turned out to be 90% and the mortality at 800 ppm turned out to be 100%. In series [3], the LD50 is 12.5 mg/kg. In series [4], this compound yielded an LD50 at 168 h of 115 mg/kg.

For `CCCCC(CC)COC(=O)CCN(SN(C)C(=O)Oc1cccc2c1OC(C)(C)C2)C(C)C` (centres unmarked) [Example 26], in series [1], the mortality at 500 ppm was 60%, the mortality at 1000 ppm stood at 80% and the mortality at 2000 ppm was found to be 100%. In series [2], this compound returned a mortality at 200 ppm of 55%, a mortality at 400 ppm of 75% and a mortality at 800 ppm of 100%. In series [3], this compound returned an LD50 of 64.7 mg/kg. In series [4], this compound yielded an LD50 at 168 h of 150 mg/kg.

`CCOC(=O)CCN(CC(C)C)SN(C)C(=O)Oc1cccc2c1OC(C)(C)C2` [Example 30]: in series [1], the mortality at 500 ppm stood at 65%, the mortality at 1000 ppm was 85% and the mortality at 2000 ppm was determined as 100%. In series [2], the mortality at 200 ppm worked out at 60%, the mortality at 400 ppm is 80% and the mortality at 800 ppm came out at 100%. The compound also yielded an LD50 in series [3] of 23.8 mg/kg. In series [4], this compound displayed an LD50 at 168 h of 133 mg/kg.

Regarding `CCOC(=O)CN(SN(C)C(=O)Oc1cccc2c1OC(C)(C)C2)C(=O)c1ccc(Cl)cc1` [Example 47], in series [1], the mortality at 500 ppm worked out at 65%, the mortality at 1000 ppm was 80% and the mortality at 2000 ppm came to 100%. In series [2], this compound came in with a mortality at 200 ppm of 60%, a mortality at 400 ppm of 75% and a mortality at 800 ppm of 95%. This compound also showed an LD50 in series [3] of 57.8 mg/kg. The same compound registered an LD50 at 168 h in series [4] of 95 mg/kg.

With `CCOC(=O)CN(SN(C)C(=O)Oc1cccc2c1OC(C)(C)C2)c1cccc(C)c1` [Example 21], in series [1], the mortality at 500 ppm came to 75%, the mortality at 1000 ppm was 90% and the mortality at 2000 ppm is 100%. Also, in series [2], the mortality at 200 ppm is 65%, the mortality at 400 ppm is 90% and the mortality at 800 ppm is 100%. In series [3], the LD50 was 10.4 mg/kg. In series [4], this compound gave an LD50 at 168 h of 105 mg/kg.

Turning to `CC(C)N(CC#N)SN(C)C(=O)Oc1cccc2c1OC(C)(C)C2` [Example 34], in series [1], the mortality at 500 ppm amounted to 75%, the mortality at 1000 ppm was 90% and the mortality at 2000 ppm turned out to be 100%. In series [2], this compound gave a mortality at 200 ppm of 65%, a mortality at 400 ppm of 90% and a mortality at 800 ppm of 100%. In series [3], this compound showed an LD50 of 16.7 mg/kg. Moreover, the LD50 at 168 h in series [4] amounted to 95 mg/kg.

In series [1], `CC(C)OC(=O)CN(CC(=O)OC(C)C)SN(C)C(=O)Oc1cccc2c1OC(C)(C)C2` [Example 4] showed a mortality at 500 ppm of 60%, a mortality at 1000 ppm of 70% and a mortality at 2000 ppm of 100%. Also, in series [2], the mortality at 200 ppm amounted to 40%, the mortality at 400 ppm came out at 70% and the mortality at 800 ppm came out at 100%. This compound had an LD50 in series [3] of 28.9 mg/kg. Further, the LD50 at 168 h in series [4] turned out to be 122 mg/kg.

In series [1], `CCCCN(CCC(=O)OC)SN(C)C(=O)Oc1cccc2c1OC(C)(C)C2` [Example 28] displayed a mortality at 500 ppm of 75%, a mortality at 1000 ppm of 90% and a mortality at 2000 ppm of 100%. In series [2], this compound gave a mortality at 200 ppm of 65%, a mortality at 400 ppm of 90% and a mortality at 800 ppm of 100%. In series [3], this compound had an LD50 of 17.7 mg/kg. Also, the LD50 at 168 h in series [4] is 89 mg/kg.

Regarding `CCOC(=O)CN(SN(C)C(=O)Oc1cccc2c1OC(C)(C)C2)c1ccc(OC)cc1` [Example 22], in series [1], the mortality at 500 ppm worked out at 65%, the mortality at 1000 ppm was determined as 85% and the mortality at 2000 ppm was 100%. In series [2], this compound yielded a mortality at 200 ppm of 60%, a mortality at 400 ppm of 80% and a mortality at 800 ppm of 100%. Further, the LD50 in series [3] was determined as 45.2 mg/kg. The compound also returned an LD50 at 168 h in series [4] of 88 mg/kg.

In series [1], `CCOC(=O)CN(CC(=O)OCC)SN(C)C(=O)Oc1cccc2c1OC(C)(C)C2` [Example 2, 2,3-dihydro-2,2-dimethylbenzofuran-7-yl N-[N,N-bis(ethoxycarbonylmethyl)aminosulfenyl]-N-methylcarbamate] displayed a mortality at 500 ppm of 60%, a mortality at 1000 ppm of 70% and a mortality at 2000 ppm of 100%. In series [2], this compound came in with a mortality at 200 ppm of 45%, a mortality at 400 ppm of 85% and a mortality at 800 ppm of 100%. In series [3], this compound yielded an LD50 of 58.8 mg/kg. The LD50 at 168 h in series [4] is 140 mg/kg.

As to `CN(CCC#N)SN(C)C(=O)Oc1cccc2c1OC(C)(C)C2` [Example 37], in series [1], the mortality at 500 ppm turned out to be 70%, the mortality at 1000 ppm stood at 85% and the mortality at 2000 ppm was found to be 100%. In series [2], the mortality at 200 ppm was found to be 65%, the mortality at 400 ppm amounted to 85% and the mortality at 800 ppm was found to be 100%. Moreover, the LD50 in series [3] stood at 11.8 mg/kg. This compound also returned an LD50 at 168 h in series [4] of 65 mg/kg.
